From US20160158307A1, “Potent and Efficient Cytotoxic Peptides and Antibody-Drug Conjugates thereof and Their Synthesis” (priority 2014, published 2016)
Numbered stars: 1 amine (or outer) side, 2 acyl side, 3 side chain; on linkers, the order of the positions; unused ones are H or OH. Square brackets hold non-standard residues; d marks the D form. Peptide text beside a SMILES is read from it. * marks the point of attachment. Butanoyl(3R-OMe,4S-NMe,4-Cy) = CO[C@H](CC(=O)[*:2])[C@H](C1CCCCC1)N(C)[*:1]; Dolaproine = CO[C@@H]([C@@H]1CCCN1)[C@@H](C)C(=O)O; X2 = CO[C@H](CC(=O)[*:2])[C@H](C1CCCC1)N(C)[*:1]; Dil = CC[C@H](C)[C@H](NC)[C@@H](CC(=O)O)OC; X1 = C[C@@H](N*)[C@@H](O)c1ccccc1; NMeV = CN[C@H](C(=O)O)C(C)C; Aib = CC(C)(N)C(=O)O; OtBu = CC(C)(C)O*

Tests used:
Type in all cases: cell-based, Human
[1] = test system: HCC1954; assay: In vitro cell assay (Cell Titer Glo), HCC1954; details: 6 days exposure
Method: (§1) In vitro cell assay is performed in a 96 well micro titer plate. Human tumor cell lines Hela, A549, MCF-7, HCC-1954 and SK-BR-3 are obtained from ATCC (American Type Culture Collection).
The cells were harvested respectively during the logarithmic growth period and counted with hemocytometer. […] 90 μl of cell suspensions were added in to 96-well plates, the final cell density was reached to 3000 cells/well. […]
(§2) To each well was added 10 μL, of DMSO diluted compound (10×). For the sentinel base T0 plate, to each well was added 100 μL Cell Titer Gloand the luminescence signals with Envision reading were recorded.
(§3) […] Plates are read with Envision after adding Cell Titer Glo to each well. IC50 values were calculated using GraphPad Prism 5.

[2] = test system: MCF-7; assay: In vitro cell assay (Cell Titer Glo), MCF-7
Method: as §1
(§4) The cells were harvested respectively during the logarithmic growth period and counted with hemocytometer. […] 90 μl of cell suspensions were added in to 96-well plates, the final cell density was reached to 3000 cells/well. Plates were incubated for 96 hours at 37° C., and 5% CO2.
as §2, §3

[3] = test system: Hela; assay: In vitro cell assay (Cell Titer Glo), Hela; details: 6 days exposure
Method: as §1
The cells were harvested respectively during the logarithmic growth period and counted with hemocytometer. The cell viability was over 98% by trypan blue exclusion. 90 μl of cell suspensions were added in to 96-well plates, the final cell density was reached to 3000 cells/well. Plates were incubated for 96 hours at 37° C., and 5% CO2.
as §2, §3

[4] = test system: A549; assay: In vitro cell assay (Cell Titer Glo), A549
Method: as §1
The cells were harvested respectively during the logarithmic growth period and counted with hemocytometer. The cell viability was over 98% by trypan blue exclusion. 90 μl of cell suspensions were added in to 96-well plates, the final cell density was reached to 3000 cells/well. […]
as §2, §3

[5] = test system: SK-BR-3; assay: In vitro cell assay (Cell Titer Glo), SK-BR-3; details: 6 days exposure
Method: as §1, §4, §2, §3

[6] = Homo sapiens, HCC1954, 144 h, Table 2
[7] = Homo sapiens, HeLa, 144 h, Table 2
[8] = Homo sapiens, SK-BR-3, 144 h, Table 2
[9] = Homo sapiens, HCC1954, 144 h, Table 01
[10] = Homo sapiens, HeLa, 144 h, Table 01
[11] = Homo sapiens, SK-BR-3, 144 h, Table 01
[12] = Table 3, payloads and related ADCs, Her2 positive

Structure (SMILES): N.N.[Cl][Pt][Cl] [Cisplatin, reference compound]
- IC50 ([1]; Table 01): 3270 nM
- IC50 ([1]; Table 2): 3270 nM
- IC50 ([2]; Table 01, 6 days exposure): 3550 nM
- IC50 ([2]; Table 2, 6 days exposure): 3550 nM
- IC50 ([3]; Table 01): 182 nM
- IC50 ([3]; Table 2): 182 nM
- IC50 ([4]; Table 01, 6 days exposure): 2830 nM
- IC50 ([4]; Table 2, 6 days exposure): 2830 nM
- IC50 ([5]; Table 01): 854 nM
- IC50 ([5]; Table 2): 854 nM

Structure (SMILES): CO[C@H]([C@@H](C)C(=O)N[C@H](C)[C@@H](O)c1ccccc1)[C@@H]1CCCN1C(=O)C[C@@H](OC)[C@H](C1CCCC1)N(C)C(=O)[C@@H](NC(=O)C(C)(C)N)C(C)C [Compound 17, (S)-2-(2-amino-2-methylpropanamido)-N-((1S,2R)-1-cyclopentyl-4-((S)-2-((1R,2R)-3-((1S,2R)-1-hydroxy-1-phenylpropan-2-ylamino)-1-methoxy-2-methyl-3-oxopropyl)pyrrolidin-1-yl)-2-methoxy-4-oxobutyl)-N,3-dimethylbutanamide]
- IC50 [1, 6]: 0.623 nM
- IC50 ([2]; Homo sapiens, MCF7, Table 2): 4.75 nM
- IC50 [3, 7]: 1.56 nM
- IC50 ([4]; Homo sapiens, A549, Table 2): 6.32 nM
- IC50 [5, 8]: 0.839 nM

Structure (SMILES): CO[C@H]([C@@H](C)C(=O)N[C@H](C)[C@@H](O)c1ccccc1)[C@@H]1CCCN1C(=O)C[C@@H](OC)[C@H](C1CCCCC1)N(C)C(=O)[C@@H](NC(=O)C(C)(C)N)C(C)C [Compound 18, (S)-2-(2-amino-2-methylpropanamido)-N-((1S,2R)-1-cyclohexyl-4-((S)-2-((1R,2R)-3-((1S,2R)-1-hydroxy-1-phenylpropan-2-ylamino)-1-methoxy-2-methyl-3-oxopropyl)pyrroli-din-1-yl)-2-methoxy-4-oxobutyl)-N,3-dimethylbutanamide]
- IC50 [1, 6]: 0.466 nM
- IC50 ([2]; Homo sapiens, MCF7, Table 2): 3.19 nM
- IC50 [3, 7]: 0.478 nM
- IC50 ([4]; Homo sapiens, A549, Table 2): 1.14 nM
- IC50 [5, 8]: 0.805 nM

Structure (SMILES): CO[C@H]([C@@H](C)C(=O)N[C@@H](Cc1ccccc1)C(=O)OC(C)(C)C)[C@@H]1CCCN1C(=O)C[C@@H](OC)[C@H](C1CCCC1)N(C)C(=O)[C@@H](NC(=O)C(C)(C)N)C(C)C [Compound 21, (S)-tert-butyl2-((2R,3R)-3-((S)-1-((3R,4S)-4-((S)-2-(2-amino-2-methylpropanamido)-N,3-dimethylbutanamido)-4-cyclopentyl-3-methoxybutanoyl)pyrrolidin-2-yl)-3-methoxy-2-methylpropanamido)-3-phenylpropanoate] (H-[Aib]V[X2][Dolaproine]F-OtBu)
- IC50 [1, 6]: 0.296 nM
- IC50 ([2]; Homo sapiens, MCF7, Table 2): 1.3 nM
- IC50 [3, 7]: 0.563 nM
- IC50 ([4]; Homo sapiens, A549, Table 2): 1.13 nM
- IC50 [5, 8]: 0.223 nM

Structure (SMILES): CO[C@H]([C@@H](C)C(=O)N[C@@H](Cc1ccccc1)C(=O)OC(C)(C)C)[C@@H]1CCCN1C(=O)C[C@@H](OC)[C@H](C1CCCCC1)N(C)C(=O)[C@@H](NC(=O)C(C)(C)N)C(C)C [Compound 22, (S)-tert-butyl-2-((2R,3R)-3-((S)-1-((3R,4S)-4-((S)-2-(2-amino-2-methylpropanamido)-N, 3-dimethylbutanamido)-4-cyclohexyl-3-methoxybutanoyl)pyrrolidin-2-yl)-3-methoxy-2-methylpropanamido)-3-phenylpropanoate] (H-[Aib]V[Butanoyl(3R-OMe,4S-NMe,4-Cy)][Dolaproine]F-OtBu)
- IC50 [1, 6]: 0.112 nM
- IC50 ([2]; Homo sapiens, MCF7, Table 2): 0.529 nM
- IC50 [3, 7]: 0.567 nM
- IC50 ([4]; Homo sapiens, A549, Table 2): 1.08 nM
- IC50 [5, 8]: 0.066 nM

Structure (SMILES): CO[C@H]([C@@H](C)C(=O)N[C@@H](Cc1ccccc1)c1nccs1)[C@@H]1CCCN1C(=O)C[C@@H](OC)[C@H](C1CCCC1)N(C)C(=O)[C@@H](NC(=O)C(C)(C)N)C(C)C [Compound 23]
- IC50 [1, 6]: 0.405 nM
- IC50 ([2]; Homo sapiens, MCF7, Table 2): 2.9 nM
- IC50 [3, 7]: 0.484 nM
- IC50 ([4]; Homo sapiens, A549, Table 2): 2.83 nM
- IC50 [5, 8]: 0.693 nM

Structure (SMILES): CO[C@H]([C@@H](C)C(=O)N[C@@H](Cc1ccccc1)c1nccs1)[C@@H]1CCCN1C(=O)C[C@@H](OC)[C@H](C1CCCCC1)N(C)C(=O)[C@@H](NC(=O)C(C)(C)N)C(C)C [Compound 24, (S)-2-(2-amino-2-methylpropanamido)-N-((1S,2R)-1-cyclohexyl-2-methoxy-4-((S)-2-((1R,2R)-1-methoxy-2-methyl-3-oxo-3-((S)-2-phenyl-1-(thiazol-2-yl)ethylamino)propyl)pyrrolidin-1-yl)-4-oxobutyl)-N,3-dimethylbutanamide]
- IC50 [1, 6]: 0.31 nM
- IC50 ([2]; Homo sapiens, MCF7, Table 2): 1.99 nM
- IC50 [3, 7]: 0.571 nM
- IC50 ([4]; Homo sapiens, A549, Table 2): 3.34 nM
- IC50 [5, 8]: 0.524 nM

Structure (SMILES): CN[C@H](C(=O)N[C@H](C(=O)N(C)[C@@H](C1CCCC1)[C@@H](CC(=O)N1CCC[C@H]1[C@H](OC)[C@@H](C)C(=O)N[C@H](C)[C@@H](O)c1ccccc1)OC)C(C)C)C(C)C [Compound 33]
- IC50 [1, 9]: 0.146 nM
- IC50 ([2]; Homo sapiens, MCF7, Table 01): 1.36 nM
- IC50 [3, 10]: 0.43 nM
- IC50 ([4]; Homo sapiens, A549, Table 01): 2.05 nM
- IC50 [5, 11]: 0.381 nM

Structure (SMILES): CN[C@H](C(=O)N[C@H](C(=O)N(C)[C@@H](C1CCCCC1)[C@@H](CC(=O)N1CCC[C@H]1[C@H](OC)[C@@H](C)C(=O)N[C@H](C)[C@@H](O)c1ccccc1)OC)C(C)C)C(C)C [Compound 34]
- IC50 [1, 9]: 0.192 nM
- IC50 ([2]; Homo sapiens, MCF7, Table 01): 1.44 nM
- IC50 [3, 10]: 0.391 nM
- IC50 ([4]; Homo sapiens, A549, Table 01): 1.67 nM
- IC50 [5, 11]: 0.333 nM

Structure (SMILES): CN[C@H](C(=O)N[C@H](C(=O)N(C)[C@@H](C1CCCC1)[C@@H](CC(=O)N1CCC[C@H]1[C@H](OC)[C@@H](C)C(=O)N[C@@H](Cc1ccccc1)c1nccs1)OC)C(C)C)C(C)C [Compound 35]
- IC50 [1, 9]: 0.119 nM
- IC50 ([2]; Homo sapiens, MCF7, Table 01): 0.914 nM
- IC50 [3, 10]: 0.102 nM
- IC50 ([4]; Homo sapiens, A549, Table 01): 0.68 nM
- IC50 [5, 11]: 0.191 nM

Structure (SMILES): CN[C@H](C(=O)N[C@H](C(=O)N(C)[C@@H](C1CCCCC1)[C@@H](CC(=O)N1CCC[C@H]1[C@H](OC)[C@@H](C)C(=O)N[C@@H](Cc1ccccc1)c1nccs1)OC)C(C)C)C(C)C [Compound 36]
- IC50 [1, 9]: 0.103 nM
- IC50 ([2]; Homo sapiens, MCF7, Table 01): 0.841 nM
- IC50 [3, 10]: 0.143 nM
- IC50 ([4]; Homo sapiens, A549, Table 01): 0.567 nM
- IC50 [5, 11]: 0.197 nM

Structure (SMILES): CN[C@H](C(=O)N[C@H](C(=O)N(C)[C@@H](C1CCCC1)[C@@H](CC(=O)N1CCC[C@H]1[C@H](OC)[C@@H](C)C(=O)N[C@@H](Cc1ccccc1)C(=O)OC(C)(C)C)OC)C(C)C)C(C)C [Compound 37] (H-[NMeV]V[X2][Dolaproine]F-OtBu)
- IC50 [1, 9]: 0.095 nM
- IC50 ([2]; Homo sapiens, MCF7, Table 01): 0.456 nM
- IC50 [3, 10]: 0.198 nM
- IC50 ([4]; Homo sapiens, A549, Table 01): 0.863 nM
- IC50 [5, 11]: 0.118 nM

Structure (SMILES): CN[C@H](C(=O)N[C@H](C(=O)N(C)[C@@H](C1CCCCC1)[C@@H](CC(=O)N1CCC[C@H]1[C@H](OC)[C@@H](C)C(=O)N[C@@H](Cc1ccccc1)C(=O)OC(C)(C)C)OC)C(C)C)C(C)C [Compound 38] (H-[NMeV]V[Butanoyl(3R-OMe,4S-NMe,4-Cy)][Dolaproine]F-OtBu)
- IC50 [1, 9]: 0.128 nM
- IC50 ([2]; Homo sapiens, MCF7, Table 01): 0.642 nM
- IC50 [3, 10]: 0.078 nM
- IC50 ([4]; Homo sapiens, A549, Table 01): 0.275 nM
- IC50 [5, 11]: 0.097 nM

Structure (SMILES): CC[C@H](C)[C@@H]([C@@H](CC(=O)N1CCC[C@H]1[C@H](OC)[C@@H](C)C(=O)N[C@H](C)[C@@H](O)c1ccccc1)OC)N(C)C(=O)[C@@H](NC(=O)[C@@H](NC)C(C)C)C(C)C [MMAE, monomethylauristatin E, reference compound] (H-[NMeV]V[Dil][Dolaproine]-X1)
- IC50 ([1]; Table 01): 0.073 nM
- IC50 [1, 12]: 0.073 nM
- IC50 ([2]; Table 01, 6 days exposure): 0.321 nM
- IC50 ([2]; Table 3, payloads and related ADCs, 6 days exposure, does not over-express Her2): 0.321 nM
- IC50 ([3]; Table 01): 0.1 nM
- IC50 ([4]; Table 01, 6 days exposure): 0.518 nM
- IC50 ([5]; Table 01): 0.103 nM
- IC50 [5, 12]: 0.103 nM
